Source: patent US7407984B2, “Tetraoxaspriro anti-malarials” (Okayama University, priority 2002, dated 2008)
Converted amounts (≈) assume the structure as drawn. Where two headings read alike, the source gives them in different places.

How the values were obtained:
physchem = assay: physchem
Excerpt: As to 6-(1,2,6,7-tetraoxaspiro[7.11]nonadecy-4-yl)hexane-1-ole (N251), 5-(1,2,6,7-tetraoxaspiro[7.11]nonadecy-4-yl)pentane-1-carboxylic acid (N251-1), succinic acid mono-[6-(1,2,6,7-tetraoxaspiro[7.11]nonadecy-4-yl)hexyl]ester (N251-2), all obtained in Example 9, and 1,2,6,7-tetraoxaspiro[7.11]nonadecane (N89), artemisinin, artesunate (trade name: Guilin No. 2, Pharmaceutical Factory, Guangxi, China) as comparative examples, solubility to 5% of sodium bicarbonate water and dimethylsulfoxide (DMSO) was measured.

[1] = test system: chloroquine-resistant malaria parasite of P. falciparum K-1 strain; assay: Growth inhibition screening test of chloroquine-resistant P. falciparum (K-1 strain); type: cell-based; settings: read-out: EC50 (M) Chloroquine-resistant P. falciparum K1
Description: (§1) A filter-sterilized RPMI1640 medium (pH 7.4) was added with human serum such that the serum made up 10% of the medium, and used in the experiment. P. falciparum were cultured in O2 at a concentration of 5%, CO2 at a concentration of 5% and N2 at a concentration of 90%, at a temperature of 36.5° C. Hematocrit value (ratio of volume of erythrocytes in erythrocyte suspension) was adjusted to be 5%, and initial infection rate of P. falciparum at the beginning of culture was adjusted to be 0.1%. A 24-well plate was used for culture and a medium was replaced everyday, and cultures were transferred at infection rate of 4%. A thin-layer smear was constructed and subjected to Giemsa staining or Diff-Qick staining, and followed by measurement under a microscope (oil immersion, 1000×), and then infection rate of P. falciparum was calculated according to the following formula. Infection rate of P. falciparum (%)={(number of infected erythrocytes)/(total number of erythrocytes)}×100 […]
(§2) Cultured erythrocytes infected with P. falciparum were gathered by centrifugation and washed with a medium containing serum, then noninfected erythrocytes were added, and initial infection rate was adjusted to be 0.3%. Hematocrit value in this case was 3%. […] These samples were dissolved into sterilized water, dimethylformamide (DMF) or dimethylsulfoxide (DMSO), and sample solutions at prescribed concentration were prepared. 5 to 10 μl each of the sample solutions was added to a 24-well culture plate. For each sample, 2 to 3 experiments were conducted. In addition, for control, sterilized water, DMF or DMSO was added by 10 μl/well. […] The culture plate was put into a CO2—O2—N2 (5%, 5%, 90%) incubator and culture was conducted for 72 hours, then a thin-layer smear was constructed for each well, Giemsa staining or Diff-Qick staining was conducted, followed by measurement under a microscope (oil immersion, 1000×), and then infection rates of P. falciparum in a group supplemented with a reagent and in controls were calculated. The growth rate was calculated according to the following formula based on the infection rate of P. falciparum as calculated above. Growth rate (%)={([b]−[a])/([c]−[a])}×100 […]
(§3) a: initial infection rate b: infection rate when sample solution added c: infection rate of a control
(§4) EC50 is a value expressed by molar concentration: when growth rate of control wherein sample solution is not added to a medium of P. falciparum is defined as 100%, EC50 indicates a concentration of a sample wherein infection rate of P. falciparum in control is inhibited by 50% due to the addition of sample solution.

[2] = test system: P. falciparum versus mouse FM3A cells; assay: Assessment of drug efficacy (chemotherapeutic coefficient, selective toxicity against P. falciparum); type: cell-based; settings: IC50 for mouse FM3A cells ÷ EC50 for P. falciparum (values fit FCR-3)
Description: Evaluation of antimalarial activity of samples was conducted on the basis of chemotherapeutic coefficient used as an index of selective toxicity against P. falciparum. Chemotherapeutic coefficient was calculated by the following formula as a ratio of EC50 value of each sample used for P. falciparum to IC50 value of each sample used for mouse FM3A cells, and drug efficacy was assessed based on the calculated values.
Chemotherapeutic coefficient=(IC50 value of the sample for mouse […] cells)÷(EC50 value of the sample for P. falciparum)

[3] = test system: murine malaria parasites (P. berghei NK65 strain); assay: Parasite suppression test using mice infected with murine malaria parasite (4-day suppressive test); type: in vivo; settings: for ED50 / cure of infected mice / ED90: mice infected with P. berghei NK65; for ED50 / ED90: once a day for 4 days, orally or intraperitoneally in olive oil; for ED50: 50% of parasites suppressed; for cure of infected mice: N251 and N89: with 50 mg/kg; for ED90: 90% of parasites suppressed
[4] = test system: mouse breast cancer-derived FM3A cells (F28-7 strain); assay: Growth inhibition test of mouse FM3A cells; type: cell-based; settings: read-out: IC50 (M) Cancer cells of mice FM3A
Description: An F28-7 strain, a wild-type strain of mouse breast cancer-derived FM3A cells, was used. Immobilized fetal bovine serum was added to an ES medium such that the serum made up 2% of the medium, and culture was conducted in CO2 at a concentration of 5%, and at 37° C. […] Cells which had been precultured and entered to logarithmic growth phase were diluted to be 5×10^4 cells/ml in the medium. A sample prepared at the time of the measurement of antimalarial activity of P. falciparum was used. […] For each test sample, 2 to 3 experiments were conducted, and wells added with 10 μl each of sterilized water, DMF and DMSO were tested at the same time as controls. Next, a prepared suspension of cultured cells was added, by 990 to 995 μl each, and when medium and the like were added, the final concentration of test samples became 1×10^−4 to 1×10^−6M. By pipetting gently, these substances were uniformly suspended in media.
Based on the counted number of cells, growth rate was calculated by the following formula. Growth rate (%)={([C]−[A])/([B]−[A])}×100
A: the number of cells at the beginning
B: the number of cells in a control after 48 hours
C: the number of cells 48 hours after sample addition
Based on the calculated growth rate, IC50, cell growth inhibitory concentration, was calculated, and cytotoxicity of samples was evaluated as cell growth inhibitory activity.

[5] = test system: P. falciparum FCR-3 strain (ATCC30932); assay: Growth inhibition screening test of P. falciparum (FCR-3 strain); type: cell-based; settings: read-out: EC50 (M) P. falciparum FCR-3
Description: as §1, §2, §3, §4

[6] = Plasmodium falciparum, K1 chloroquine-resistant strain, 72 hours culture
[7] = Plasmodium berghei, 96 h, read-out: ED50
[8] = Mus musculus, FM3A cells, 48 hours culture, cell count, cytotoxicity
[9] = Plasmodium falciparum, FCR-3 strain, 72 hours culture, infection rate by Giemsa or Diff-Qick staining

Q: For `C[C@H]1[C@H](OC(=O)CCC(=O)O)O[C@@H]2O[C@@]3(C)CC[C@H]4[C@H](C)CC[C@@H]1[C@@]24OO3` [artesunate], which solubility (physchem; aqueous buffer) is on record?
A: The solubility was 100 mg/mL (≈ 260 mM).

Q: With `C1CCCCCC2(CCCCC1)OOCCCOO2` [N89, 1,2,6,7-tetraoxaspiro[7.11]nonadecane] as the compound, how does the EC50 [1, 6] read?
A: The EC50 was 2.6e-08 M.

Q: And the “IC50/EC50 Chemotherapeutic coefficient” value [2]?
A: The value was 328.

Q: What about the “solubility to DMSO” value (physchem) of the same compound?
A: The value was “insoluble”.

Q: And the ED50 [3, 7]?
A: Its ED50 is 12 mg/kg.

Q: And the “cure of infected mice” value [3]?
A: The value was “All cured”.

Q: And the “ED90” value [3]?
A: Its value is 20 mg/kg.

Q: And the IC50 [4, 8]?
A: Its IC50 is 8.2e-06 M.

Q: And the EC50 [5, 9]?
A: The EC50 was 2.5e-08 M.

Q: For `O=C(O)CCC(=O)OCCCCCCC1COOC2(CCCCCCCCCCC2)OOC1` [N251-2, succinic acid mono-[6-(1,2,6,7-tetraoxaspiro[7.11]nonadecy-4-yl)hexyl]ester], which “solubility to 5% of sodium bicarbonate water” value (physchem) is on record?
A: Its value is 100 mg/mL.

Q: Which “solubility to 5% of sodium bicarbonate water” value (physchem; 5% of sodium bicarbonate water) does the source give for `O=C(O)CCCCCC1COOC2(CCCCCCCCCCC2)OOC1` [N251-1, 5-(1,2,6,7-tetraoxaspiro[7.11]nonadecy-4-yl)pentane-1-carboxylic acid] here?
A: Its value is 50 mg/mL.

Q: Which results are given for `OCCCCCCC1COOC2(CCCCCCCCCCC2)OOC1` [N251, 6-(1,2,6,7-tetraoxaspiro[7.11]nonadecy-4-yl)hexane-1-ole]?
A: EC50 ([1]; K1 chloroquine-resistant strain, 72 hours culture): 2e-08 M; IC50/EC50 Chemotherapeutic coefficient [2]: 348; solubility to DMSO (physchem): insoluble; ED50 (mg/kg) on N89 basis ([3]; ED50 of N251 converted to N89 basis (molar comparison)): [<7 on N89 basis] mg/kg; ED90 (mg/kg) on N89 basis ([3]; ED90 of N251 converted to N89 basis (molar comparison)): [13 on N89 basis] mg/kg; cure of infected mice [3]: All cured; ED50 [3]: <10 mg/kg; ED90 [3]: 18 mg/kg; IC50 ([4]; FM3A cells, 48 hours culture, cell count, cytotoxicity): 8e-06 M; EC50 ([5]; FCR-3 strain, 72 hours culture, infection rate by Giemsa or Diff-Qick staining): 2.3e-08 M

Q: With `C[C@@H]1CC[C@H]2[C@@H](C)C(=O)O[C@@H]3O[C@@]4(C)CC[C@@H]1[C@]32OO4` [Artemisinin, artemisinin] as the compound, how does the EC50 [1, 6] read?
A: Its EC50 is 1.3e-08 M.

Q: What about the “IC50/EC50 Chemotherapeutic coefficient” value [2] of the same compound?
A: Its value is 1000.

Q: And the “solubility to DMSO” value (physchem)?
A: The value was “insoluble”.

Q: What about the ED50 [3, 7] of the same compound?
A: Its ED50 is 6 mg/kg.

Q: And the “cure of infected mice” value [3]?
A: The value was “Not cured”.

Q: And the “ED90” value [3]?
A: The value was 10.3 mg/kg.

Q: What about the IC50 [4, 8] of the same compound?
A: Its IC50 is 1e-05 M.

Q: What about the EC50 [5, 9] of the same compound?
A: The EC50 was 1e-08 M.

Q: Which results are given for `CCN(CC)CCCC(C)Nc1ccnc2cc(Cl)ccc12` (centres unmarked) [Chloroquine, chloroquine]?
A: EC50 ([1]; Plasmodium falciparum, K1, 72 h): 1.3e-07 M; IC50 ([4]; Mus musculus, FM3A, 48 h): 3.2e-05 M; EC50 ([5]; Plasmodium falciparum, 72 h): 1.8e-08 M
